The values that follow come from US9744171B2, “Positive allosteric modulators for melanocortin receptors” (Vanderbilt University, priority 2012, dated 2017).

This test is described as follows: High fat diet-induced weight gain in mice, osmotic minipump treatment. The test is classed as in vivo. How it is done: FIG. 6 provides a bar graph showing a reduction in high fat diet-induced weight gain in mice by treatment with VU0055768. Wild type 12 week old male C57BL/6J mice were placed on a high fat diet for 5 days. Mice were then implanted subcutaneously with Alzet csmotic minipumps filled with vehicle (25% DMSO, 25% saline, 50% EtOH; n=6) or VU0055768 (25% compound in DMSO, 25% saline, 50% EtOH, n=5) so as to deliver 2.5 mg/kg/day of VU0055768. Mice were maintained on ad libitum access to water and high fat chow, and body weights were measured at the end of an additional 9 days. Bars indicate the mean and standard error of the data, and show a greater than 50% reduction in weight gain as a result of treatment with VU0055768
Eleven 12 weeks old Wt C57 mice were placed on high fat diet for 5 days. Osmotic pumps were filled with vehicle (25% DMSO, 25% saline, 50% EtOH) or VU0055768 (25% compound in DMSO, 25% saline, 50% EtOH) as to deliver 2.5 mg/kg/day, and were then inserted subcutaneously (6 vehicle, 5 compound) into the mice. The mice were fed ad-libidum with high fat diet. Mouse and food weight was measured daily. Statistical analysis of the results was t-test.

Take `NCCc1c(-c2ccccc2)n(-c2ccccc2)c2ccccc12` [VU0055768]: the “reduction in weight gain” value (C57BL/6J mice on high fat diet, 2.5 mg/kg/day subcutaneous osmotic minipump, body weights after additional 9 days, vs vehicle) is “greater than 50%”. Moreover, where the note is “Wt C57 mice on high fat diet, 2.5 mg/kg/day subcutaneous osmotic pump, t-test vs vehicle”, the weight gain result is “significantly reduced weight gain”.
